How the values were obtained:
BRCA^mut+ tumors = assay: Tumor response per RECIST v1.1 (ORR, DCR, DOR, PFS), BRCA^mut+ subgroup; type: in vivo, human; settings: for Patients with reduced tumor size: BRCA^mut+ subgroup; for PFS, Median (95% CI): Kaplan-Meier
Description: The dose-expansion period included 3 populations: dose groups in which at least one patient achieved complete response (CR) or partial response (PR) per RECIST v1.1[16] and 1 dose group higher (evaluated for safety), as well as the dose group at the maximum tolerated dose (MTD)/recommended phase II dose (RP2D). Each of these groups included those patients in the respective dose-escalation group plus a planned additional 10 patients (approximately 20 patients in the MTD/RP2D group) with BRCA^mut+ solid tumors (ovarian, breast, or prostate cancer were preferred, and ovarian cancer could be BRCA wild type). Patients received senaparib monotherapy orally QD or BID (50-mg dose only) over each 3-week cycle until disease progression or unacceptable toxicity.
Safety was assessed by recording the incidence of dose-limiting toxicities (DLTs), and the incidence, nature, severity (graded per National Cancer Institute Common Terminology Criteria for Adverse Events version 4.03 [NCI CTCAE v4.03][18]), and relatedness of treatment-emergent adverse events (TEAEs). DLTs were predefined toxicities (Supplementary Table S2) recorded over the 7 days following the single-dose administration of senaparib and during the first treatment cycle (day 1-day 21) for each dose group in the dose-escalation period only. The MTD was defined as the maximum dose at which ≤1/6 patients experienced a DLT. Senaparib PK parameters were derived from blood samples collected from patients after the single administration, and at regular intervals during the first cycle of the dose-escalation and dose-expansion periods. Plasma concentrations of senaparib were determined using high-performance liquid chromatography-tandem mass spectrometry. Tumor response was assessed every 6 weeks per RECIST v1.1,[16] recording objective response rate (ORR), disease control rate (DCR), duration of response (DOR), and progression-free survival (PFS) by dose level for all patients and for those harboring BRCA^mut+ tumors.
There was no formal sample size calculation based on statistical hypothesis testing for this study; the planned enrolment was approximately 30-60 patients across the dose-escalation and dose-expansion cohorts. The actual number in the dose-escalation cohort was adjusted based on the number of dose cohorts required for the modified Fibonacci dose-escalation design and the determined MTD. Definitions for all analysis populations (safety, DLT, PK, and efficacy [intent-to-treat, ITT]) are provided in Supplementary Table S2. No statistical tests were performed; patient demographic and baseline characteristics, safety/tolerability, PK parameters, and efficacy were evaluated descriptively. ORR and DCR and their 95% CIs were calculated for each group using the exact probability method. Kaplan-Meier statistics were used to estimate DOR and PFS, and their 95% CIs for each dose group separately. Dose linearity was explored based on the single-dose data of area under the time-concentration curve (AUC) and maximum plasma concentration (Cmax) using the power model (Y = α × dose β) for the dose range 2-80 mg on a log-transformed scale. The following criterion was used to determine whether dose proportionality was met: if the (2-sided) 90% CI for β was wholly contained within the interval (1 + log(0.5)/log(r), 1 + log(2)/log(r)), then dose proportionality was supported. Here, r was defined as the ratio of the highest to lowest dose. All data analyses were carried out using SAS EG7.1 or higher or (for PK parameters) WinNonlin 7.0 or higher.

[1] = Plasma pharmacokinetics in continuous dosing period, cycle 1 day 15 steady state (HPLC-MS/MS); type: in vivo, human; settings: dose range of 2-120 mg
anticancer animal models = test system: anticancer animal models; parameters: method as in doi:10.1158/1538-7445.am2022-1399; settings: in vivo studies (anticancer animal models); cited from earlier work
[2] = BRCA^mut+, 26 evaluable for tumor response
[3] = BRCA^mut+, 5 mg QD, PFS evaluable n 2
[4] = BRCA^mut+, 10 mg QD, PFS evaluable n 1
[5] = BRCA^mut+, 10 mg QD, evaluable n 1
[6] = BRCA^mut+, 20 mg QD, PFS evaluable n 3
[7] = BRCA^mut+, 20 mg QD, evaluable n 2
[8] = BRCA^mut+, 60 mg QD, PFS evaluable n 4
[9] = BRCA^mut+, 60 mg QD, evaluable n 4
[10] = BRCA^mut+, 80 mg QD, DOR evaluable n 3
[11] = BRCA^mut+, 80 mg QD, PFS evaluable n 6
[12] = BRCA^mut+, 80 mg QD, evaluable n 6
[13] = BRCA^mut+, 100 mg QD, DOR evaluable n 2
[14] = BRCA^mut+, 100 mg QD, PFS evaluable n 13
[15] = BRCA^mut+, 100 mg QD, evaluable n 11
[16] = BRCA^mut+, 120 mg QD, PFS evaluable n 2
[17] = BRCA^mut+, 120 mg QD, evaluable n 2
[18] = BRCA^mut+, Total, DOR evaluable n 7
[19] = BRCA^mut+, Total, PFS evaluable n 32
[20] = BRCA^mut+, Total, evaluable n 26

O=C(c1cc(Cn2c(=O)[nH]c(=O)c3c(F)cccc32)ccc1F)N1CCN(c2ncccn2)CC1 [Senaparib]
Median DOR (BRCA^mut+ tumors; BRCA^mut+ patients, 95% CI, 39-NR): 169 days
Median PFS (BRCA^mut+ tumors; BRCA^mut+ patients, 95% CI, 79-464): 215 days
Patients with reduced tumor size (BRCA^mut+ tumors; non-ovarian (3/10)): 30.0%
Patients with reduced tumor size (BRCA^mut+ tumors; ovarian cancer (10/16)): 62.5%
DCR (BRCA^mut+ tumors; [2]): 73.1%
ORR (BRCA^mut+ tumors; [2]): 26.9%
DOR: Events (BRCA^mut+ tumors; BRCA^mut+, 2 mg QD, DOR evaluable n 0): 0 n (%)
PFS: Events (BRCA^mut+ tumors; BRCA^mut+, 2 mg QD, PFS evaluable n 0): 0 (0) n (%)
DOR: Events (BRCA^mut+ tumors; BRCA^mut+, 5 mg QD, DOR evaluable n 0): 0 n (%)
PFS: Events (BRCA^mut+ tumors; [3]): 2 (100) n (%)
PFS, Median (95% CI) (BRCA^mut+ tumors; [3]): 254.5 (45-464) days
DOR: Events (BRCA^mut+ tumors; BRCA^mut+, 10 mg QD, DOR evaluable n 0): 0 n (%)
PFS: Events (BRCA^mut+ tumors; [4]): 1 (100) n (%)
PFS, Median (95% CI) (BRCA^mut+ tumors; [4]): 49 (49-49) days
Complete response (BRCA^mut+ tumors; [5]): 0 n (%)
DCR (complete response+partial response+stable disease) (BRCA^mut+ tumors; [5]): 0 n (%)
ORR (complete response+partial response) (BRCA^mut+ tumors; [5]): 0 (0) n (%)
Partial response (BRCA^mut+ tumors; [5]): 0 n (%)
Stable disease (≥42 days from cycle 1 day 1) (BRCA^mut+ tumors; [5]): 0 n (%)
DOR: Events (BRCA^mut+ tumors; BRCA^mut+, 20 mg QD, DOR evaluable n 1): 0 n (%)
PFS: Events (BRCA^mut+ tumors; [6]): 1 (33.3) n (%)
PFS, Median (95% CI) (BRCA^mut+ tumors; [6]): – (39-NR)
Complete response (BRCA^mut+ tumors; [7]): 0 n (%)
DCR (complete response+partial response+stable disease) (BRCA^mut+ tumors; [7]): 1 (50.0) n (%)
ORR (complete response+partial response) (BRCA^mut+ tumors; [7]): 1 (50.0) n (%)
Partial response (BRCA^mut+ tumors; [7]): 1 (50.0) n (%)
Stable disease (≥42 days from cycle 1 day 1) (BRCA^mut+ tumors; [7]): 0 n (%)
DOR: Events (BRCA^mut+ tumors; BRCA^mut+, 40 mg QD, DOR evaluable n 0): 0 n (%)
DOR: Events (BRCA^mut+ tumors; BRCA^mut+, 50 mg BID, DOR evaluable n 0): 0 n (%)
PFS: Events (BRCA^mut+ tumors; BRCA^mut+, 50 mg BID, PFS evaluable n 1): 0 (0) n (%)
DOR: Events (BRCA^mut+ tumors; BRCA^mut+, 60 mg QD, DOR evaluable n 1): 0 n (%)
PFS: Events (BRCA^mut+ tumors; [8]): 2 (50.0) n (%)
PFS, Median (95% CI) (BRCA^mut+ tumors; [8]): 255 (127-NR) days
Complete response (BRCA^mut+ tumors; [9]): 0 n (%)
DCR (complete response+partial response+stable disease) (BRCA^mut+ tumors; [9]): 4 (100) n (%)
ORR (complete response+partial response) (BRCA^mut+ tumors; [9]): 1 (25.0) n (%)
Partial response (BRCA^mut+ tumors; [9]): 1 (25.0) n (%)
Stable disease (≥42 days from cycle 1 day 1) (BRCA^mut+ tumors; [9]): 3 (75.0) n (%)
DOR, Median (95% CI) (BRCA^mut+ tumors; [10]): 120 (39-169) days
DOR: Events (BRCA^mut+ tumors; [10]): 3 (100) n (%)
PFS: Events (BRCA^mut+ tumors; [11]): 5 (83.3) n (%)
PFS, Median (95% CI) (BRCA^mut+ tumors; [11]): 167 (40-216) days
Complete response (BRCA^mut+ tumors; [12]): 0 n (%)
DCR (complete response+partial response+stable disease) (BRCA^mut+ tumors; [12]): 5 (83.3) n (%)
ORR (complete response+partial response) (BRCA^mut+ tumors; [12]): 3 (50.0) n (%)
Partial response (BRCA^mut+ tumors; [12]): 3 (50.0) n (%)
Stable disease (≥42 days from cycle 1 day 1) (BRCA^mut+ tumors; [12]): 2 (33.3) n (%)
DOR, Median (95% CI) (BRCA^mut+ tumors; [13]): – (169-NR)
DOR: Events (BRCA^mut+ tumors; [13]): 1 (50.0) n (%)
PFS: Events (BRCA^mut+ tumors; [14]): 5 (38.5) n (%)
PFS, Median (95% CI) (BRCA^mut+ tumors; [14]): 289 (42-NR) days
Complete response (BRCA^mut+ tumors; [15]): 0 n (%)
DCR (complete response+partial response+stable disease) (BRCA^mut+ tumors; [15]): 8 (72.7) n (%)
ORR (complete response+partial response) (BRCA^mut+ tumors; [15]): 2 (18.2) n (%)
Partial response (BRCA^mut+ tumors; [15]): 2 (18.2) n (%)
Stable disease (≥42 days from cycle 1 day 1) (BRCA^mut+ tumors; [15]): 6 (54.5) n (%)
DOR: Events (BRCA^mut+ tumors; BRCA^mut+, 120 mg QD, DOR evaluable n 0): 0 n (%)
PFS: Events (BRCA^mut+ tumors; [16]): 1 (50.0) n (%)
PFS, Median (95% CI) (BRCA^mut+ tumors; [16]): – (48-NR)
Complete response (BRCA^mut+ tumors; [17]): 0 n (%)
DCR (complete response+partial response+stable disease) (BRCA^mut+ tumors; [17]): 1 (50.0) n (%)
ORR (complete response+partial response) (BRCA^mut+ tumors; [17]): 0 (0) n (%)
Partial response (BRCA^mut+ tumors; [17]): 0 n (%)
Stable disease (≥42 days from cycle 1 day 1) (BRCA^mut+ tumors; [17]): 1 (50.0) n (%)
DOR, Median (95% CI) (BRCA^mut+ tumors; [18]): 169 (39-NR) days
DOR: Events (BRCA^mut+ tumors; [18]): 4 (57.1) n (%)
PFS: Events (BRCA^mut+ tumors; [19]): 17 (53.1) n (%)
PFS, Median (95% CI) (BRCA^mut+ tumors; [19]): 215 (79-464) days
Complete response (BRCA^mut+ tumors; [20]): 0 n (%)
DCR (complete response+partial response+stable disease) (BRCA^mut+ tumors; [20]): 19 (73.1) n (%)
ORR (complete response+partial response) (BRCA^mut+ tumors; [20]): 7 (26.9) n (%)
Partial response (BRCA^mut+ tumors; [20]): 7 (26.9) n (%)
Stable disease (≥42 days from cycle 1 day 1) (BRCA^mut+ tumors; [20]): 12 (46.2) n (%)
Dose linearity [1]: Dose linearity was not observed
Potency relative to the PARP inhibitor olaparib (anticancer animal models): 20 fold
